In patent US20140056898A1, “COMBINATION THERAPIES COMPRISING ANTI-ERBB3 AGENTS” (priority 2011, published 2014):
pIC50: −log10 of the molar value. Entries after “also recorded” stand apart in the source; their conditions may differ.

Assays:
BT474-M3 cells [1] = assay: Spheroid in vitro tumor model assay, estrogen-stimulated; format: cell-based; details: estrogen-stimulated BT474-M3 spheroids, dose range, six days
Source text: Cells are continued to culture for six days.
Multicellular spheroids are used to simulate the growth and microenvironmental conditions of tumors in vitro.

BT474-M3 cells [2] = assay: Spheroid in vitro tumor model assay, heregulin-stimulated; format: cell-based; details: heregulin-stimulated BT474-M3 spheroids, dose range
Procedure: (§3) BT474-M3 wild type cells (2000 cells/well) are plated in Ultra Low Cluster 96-well plate (Costar). After overnight incubation, indicated treatments are introduced to the plate. Cells are continued to culture for six days. Spheroids are then examined by Nikon microscope and analyzed by MetaMorph Image Analysis Software (Molecular Devices). The spheroid size from cells cultured in medium containing 10% FBS is set as control.
(§4) The percent of spheroid growth inhibition (normalized to untreated, stimulated control) was determined for 1 μM doses of inhibitor treatment.

BT474-M3 cells [3] = assay: Spheroid in vitro tumor model assay, dual ligand (estrogen and heregulin)-stimulated; format: cell-based; details: estrogen and heregulin (dual ligand)-stimulated BT474-M3 spheroids, dose range
Procedure: as §3, §4

[4] = system: BT474-M3 breast cancer xenograft; assay: BT474-M3 breast cancer xenograft efficacy study, MM-111 and lapatinib; format: in vivo, mice; details: from day 40 to day 7; MM-111 weekly, lapatinib daily at optimal efficacious dose
Procedure: Tumor xenografts are established by subcutaneous injection of BT474-M3 cells into the flank of 5-6 weeks old female athymic nude mice (nu/nu; Charles River Labs, Wilmington, Mass.). Mice receive a subcutaneous 60 day, slow-release estrogen implant in the opposite flank (0.72 mg pellet; Innovation Research of America, Sarasota, Fla.) 24 hours prior to the injection of cells.
The percent change in tumor volume from day 40 to day 7 (inoculation) was calculated for each group (FIG. 6b).

[5] = system: ErbB3 phosphorylation (pErbB3); assay: Cell signaling assay, pErbB3 ELISA in heregulin-stimulated BT474-M3 cells; format: cell-based
Procedure: (§1) Cell lysates are probed for phospho-ErbB3 (pErbB3), and phospho-AKT (pAKT) by ELISA as described previously (Schoeberl et al, 2009). Inhibitor IC50 values are calculated by fitting dose-response data to a 4-parameter sigmoidal curve (GraphPad Prism®, GraphPad Software, Inc., La Jolla, Calif.).
The amount of pErbB3 was measured by ELISA using the methods described above or minor variations thereof. Model-generated dose-response curves overlay the experimental data (FIG. 7a). […] Untreated and heregulin-stimulated cells were probed for pErbB3 and pAKT and the IC50 was calculated (FIG. 7b).
(§2) CRL-1504™), cells were incubated with serial dilutions of either inhibitor for 15 minutes, 1 hour, 4 hours, and 24 hours followed by stimulation with 5 nM heregulin for 10 min. Amounts of pAKT and pErbB3 were measured by ELISA essentially as described.

BT474-M3 cells [6] = assay: Cell proliferation assay (CellTiter-Glo); format: cell-based; details: 24 hours
Procedure: Cells (8,000/well) are seeded into 96-well plates and incubated overnight. Inhibitor is added at doses indicated and cells are treated for 24 hours. For experiments with ligand stimulation, cells are serum-starved overnight prior to addition of inhibitor and 2 nM heregulin 1-[…] (R&D Systems, Minneapolis, Minn.) is added 1 hour post-inhibitor treatment in media containing 5% FBS. Numbers of viable cells are measured as an indicator of cell proliferation using the CellTiter-Glo® Luminescent Cell Viability Assay (Promega, Madison, Wis.).

BT474-M3 cells [7] = assay: Apoptosis assay (Annexin V / PI, FACS) in spheroids; format: cell-based; details: MM-111 100 nM, lapatinib 33 nM; for Percent cell population: Early apoptosis: Annexin V positive, PI negative; for Percent cell population: Dead cells: PI positive, Annexin V negative
Procedure: After overnight incubation, spheroids are treated with inhibitor at concentrations indicated for 72 hours. Spheroids are then trypsinized and combined with floating cells. Cells are washed twice with cold PBS and suspended in binding buffer (0.01 M HEPES, pH 7.4; 0.14 M NaCl; 2.5 mM CaCl2). Cells are then stained with FITC-conjugated Annexin V and PI. Apoptotic cells are quantified on a FACSCalibur™ FACS machine.
Cells were then stained with Annexin V and propidium iodide (PI) and quantitated using FACS (FIG. 11, Table 2). Cell populations staining positive with Annexin V and PI were quantified as late apoptotic, cell populations staining positive with Annexin V but not PI were quantified as early apoptotic, cell populations staining positive for PI but not Annexin V were quantified as dead cells and populations of cells not stained with either Annexin V or PI were considered alive and not apoptotic (Table 2).

BT474-M3-Aro cells = assay: Aromatase-overexpressing BT474-M3 cell proliferation assay (WST-1); format: cell-based; details: androstenedione (200 nM) and heregulin (2 nM), three days; ratio 10:20:1 MM-111 to letrozole to lapatinib
Procedure: BT474-M3 cells were transfected with PS100010 vector containing human aromatase (gene accession No: NM_000103.2). Cells with stable expression of aromatase (BT474-M3-Aro) were obtained after selection with 400 μg/ml geneticin. For cell proliferation assay, BT474-M3-Aro cells (5000 cells/well) were plated in phenol red-free RPMI-1640 medium containing 5% charcoal-stripped FBS into 96-well plate. After overnight incubation, indicated treatments were introduced in the presence of androstenedione (A-4; 200 nM) and heregulin (HRG; 2 nM). […] Cell viability in the presence of 5% charcoal-stripped FBS was set as control (100%).
Androstenedione is a steroid hormone that is converted to estrogen by aromatase.

[8] = system: ErbB3 phosphorylation (pErbB3); assay: Cell signaling assay, pErbB3 ELISA in heregulin-stimulated ZR75-30 cells; format: cell-based; details: 5 nM heregulin for 10 min, read-out: IC50, reduction of pErbB3 levels
Procedure: as §1, §2

[9] = system: AKT phosphorylation (pAKT); assay: Cell signaling assay, pAKT ELISA in heregulin-stimulated BT474-M3 cells; format: cell-based; details: 5 nM heregulin for 10 min, read-out: IC50, reduction of pAKT levels
Procedure: as §1, §2

[10] = system: AKT phosphorylation (pAKT); assay: Cell signaling assay, pAKT ELISA in heregulin-stimulated ZR75-30 cells; format: cell-based; details: 5 nM heregulin for 10 min, read-out: IC50, reduction of pAKT levels
Procedure: as §1, §2

ErbB2 and ErbB3 = assay: Affinity of MM-111 antigen-binding sites

Compound	inhibition of spheroid growth (in words) (BT474-M3 cells [1])	inhibition of spheroid growth (in words) (BT474-M3 cells [2])	inhibition of spheroid growth (in words) (BT474-M3 cells [3])	percent change in tumor volume [4] [%]	inhibition of heregulin-activated signaling (pErbB3, pAKT; in words) ([5]; BT474-M3 cells, 5 nM heregulin 10 min versus unstimulated, 1-hour incubation)	inhibition of cell proliferation (viable cells) (BT474-M3 cells [6]; BT474-M3 cells in serum plus 2 nM heregulin)	inhibition of cell proliferation (viable cells) (BT474-M3 cells [6]; unstimulated BT474-M3 cells in serum) [%]	Percent cell population: Live cells (BT474-M3 cells [7]; 72 hours) [%]	Percent cell population: Early apoptosis (BT474-M3 cells [7]; 72 hours) [%]	Percent cell population: Dead cells (BT474-M3 cells [7]; 72 hours) [%]	total apoptotic cells (BT474-M3 cells [7])	inhibition of cell growth (in words) (BT474-M3-Aro cells)	pIC50 ([5]; BT474-M3 cells, 5 nM heregulin for 10 min, read-out: IC50, reduction of pErbB3 levels)	ability to inhibit heregulin-induced ErbB3 activation relative to lapatinib ([5]; incubation 15 minutes up to 24 hours)	pIC50 [8]	pIC50 [9]	pIC50 [10]	Percent cell population: Late apoptosis (BT474-M3 cells [7]; 72 hours, Annexin V and PI positive) [%]	affinity of ErbB2 antigen-binding site relative to ErbB3 antigen-binding site (ErbB2 and ErbB3)
C[C@]12CC[C@@H]3c4ccc(O)cc4C[C@@H](CCCCCCCCC[S+]([O-])CCCC(F)(F)C(F)(F)F)[C@H]3[C@@H]1CC[C@@H]2O (some centres unmarked) [fulvestrant]	showed inhibitory effects on spheroid growth	did not inhibit heregulin stimulated spheroid growth	inhibited spheroid growth																
CS(=O)(=O)CCNCc1ccc(-c2ccc3ncnc(Nc4ccc(OCc5cccc(F)c5)c(Cl)c4)c3c2)o1 [lapatinib, reference compound]				−11	not an effective inhibitor of heregulin-activated signaling	about 23%	~50	67.9	16.8	0.73	about 31%	did not result in growth inhibition except at high concentrations							
N#Cc1ccc(C(c2ccc(C#N)cc2)n2cncn2)cc1 [letrozole]												did not result in significant inhibition of spheroid cell growth							
MM-111: bispecific anti-ErbB2/anti-ErbB3 antibody, scFv HSA conjugate, amino acid sequence SEQ ID NO:1	showed inhibitory effects on spheroid growth	inhibited heregulin-induced spheroid growth	inhibited spheroid growth; also recorded: greater inhibitory effects than trastuzumab	14				78.9	12.9	0.74	about 20%	inhibited cell proliferation to a similar extent	8.52	superior to lapatinib by greater than an order of magnitude	8.30	8.00	8.40	7.5	about 30 times
